Source: ChEMBL document CHEMBL1143650, “Synthesis of desthio prenylcysteine analogs: sulfur is important for biological activity” (Bioorg Med Chem Lett, 2005)

Experiments:
[1] = molecular target: T1, Protein-S-isoprenylcysteine O-methyltransferase (Saccharomyces cerevisiae S288c, UniProt P32584); test: Inhibitory concentration against isoprenyl-cysteine carboxyl methyltransferase
T1 sequence (P32584 whole entry): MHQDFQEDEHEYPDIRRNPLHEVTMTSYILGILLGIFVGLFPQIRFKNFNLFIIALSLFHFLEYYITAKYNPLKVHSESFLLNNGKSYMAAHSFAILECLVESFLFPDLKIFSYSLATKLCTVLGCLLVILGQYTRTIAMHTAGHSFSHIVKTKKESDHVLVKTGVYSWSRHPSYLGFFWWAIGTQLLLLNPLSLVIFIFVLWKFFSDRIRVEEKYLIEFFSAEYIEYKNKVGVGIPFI

[2] = molecular target: T1, Protein-S-isoprenylcysteine O-methyltransferase; test: Inhibitory concentration against isoprenyl-cysteine carboxyl methyltransferase by Casey method; Range 7 - 14 uM

| SMILES | Ki [1] | IC50 [2] | IC50 [1] |
| --- | --- | --- | --- |
| CC(=O)NC(C[S+]([O-])C/C=C(\C)CC/C=C(\C)CC/C=C(\C)CCC=C(C)C)C(=O)O (stereo not given) | 13.2 µM | – | – |
| CC(=O)N[C@@H](CSC/C=C(\CC=C(C)C)CC/C=C(\C)CCC=C(C)C)C(=O)O | 17.1 µM | 14 µM | 44 µM |
| CC(C)=CCC/C(C)=C/CC/C(C)=C/CSCC(=O)O [FARNESYLTHIOACETIC ACID] | 4.6 µM | – | – |
